The inhibition is how much of the control response was suppressed. By IC50 is commonly meant the concentration at which inhibition is half-maximal.

This note sets out measurements from patent US5925769A, “Acetylenic 1,5-diarylpyrazoles as antiinflammatory agents” (Ortho Pharmaceutical, Corp., priority 1998, dated 1999).

Assay [1] addresses T1, Sheep seminal vesicle (SSV) cyclooxygenase (Ovis aries, UniProt P05979).
T1 construct: Sheep seminal vesicle (SSV) cyclooxygenase (95% pure); purchased Biomol (Plymouth Meeting, PA); host or cells: sheep seminal vesicle
T1 sequence (P05979 25-600): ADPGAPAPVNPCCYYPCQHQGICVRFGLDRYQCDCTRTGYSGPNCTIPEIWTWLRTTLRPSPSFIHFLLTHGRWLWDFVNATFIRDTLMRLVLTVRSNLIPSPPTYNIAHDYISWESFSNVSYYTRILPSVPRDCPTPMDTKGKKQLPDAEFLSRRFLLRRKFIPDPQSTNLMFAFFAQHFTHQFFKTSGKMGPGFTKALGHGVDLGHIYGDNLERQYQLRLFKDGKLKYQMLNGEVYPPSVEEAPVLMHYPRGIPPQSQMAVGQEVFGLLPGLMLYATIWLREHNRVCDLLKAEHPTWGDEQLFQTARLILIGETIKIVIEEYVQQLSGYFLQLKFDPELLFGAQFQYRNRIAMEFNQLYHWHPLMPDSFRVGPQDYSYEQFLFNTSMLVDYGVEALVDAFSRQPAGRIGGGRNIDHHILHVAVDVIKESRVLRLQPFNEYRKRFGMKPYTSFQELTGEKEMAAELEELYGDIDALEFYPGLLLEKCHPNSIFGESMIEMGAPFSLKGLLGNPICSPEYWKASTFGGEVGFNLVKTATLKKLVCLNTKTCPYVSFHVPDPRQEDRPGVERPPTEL
The assay can be described thus: Procedure I: inhibition of sheep seminal vesicle (SSV) cyclooxygenase. In kind it is biochemical. Particulars: for inhibition at 10 µM: 20 min, read-out: Proc. I % inhibition. The protocol: Procedure I was used to determine the ability of the compounds to inhibit cyclooxygenase. […] The enzyme was divided into 200 μL aliquots, snap frozen with liquid N2, and stored at -70° C. until immediately prior to use. […] The tubes were mixed on a vortex shaker, preincubated for 5 min at 37° C. prior to the initiation of the reaction. The reaction was started by the addition of [^14 C]-arachidonic acid (1-^14 C-AA, Amersham, Arlington Heights, Ill.) in 10 μL of methanol. Tubes were again vortexed and incubated in a water bath for 20 minutes after which the tubes were removed and the reaction stopped by acidification with the addition of 1 mL 2M formic acid. Lipophilic products were extracted with 3 mL chloroform and concentrated to dryness under N2. Each pellet was reconstituted with 40 μL of chloroform and spotted on a Whatman Silicon thin-layer chromatography plate and developed in a chromatography tank containing A-9 solvent (11:5:2:1 V:V:VV, ethyl acetate:trimethyl-pentane:acetic acid:double distilled-H2 O). Radioactive cyclooxygenase products (prostaglandin D2, prostaglandin E2, etc.) were measured using a Bioscan System 200 Imaging Scanner. Inhibition of enzyme activity was calculated by comparing the areas under the curve produced in the presence or absence of test compound.

In assay [2] the target is T2, CO (Rattus norvegicus, UniProt Q63921).
T2 construct: the supernatant was saved as the source of enzymes; endogenous in cells; host or cells: RBL-1 (rat basophilic leukemia) cells
T2 sequence (Q63921 27-602): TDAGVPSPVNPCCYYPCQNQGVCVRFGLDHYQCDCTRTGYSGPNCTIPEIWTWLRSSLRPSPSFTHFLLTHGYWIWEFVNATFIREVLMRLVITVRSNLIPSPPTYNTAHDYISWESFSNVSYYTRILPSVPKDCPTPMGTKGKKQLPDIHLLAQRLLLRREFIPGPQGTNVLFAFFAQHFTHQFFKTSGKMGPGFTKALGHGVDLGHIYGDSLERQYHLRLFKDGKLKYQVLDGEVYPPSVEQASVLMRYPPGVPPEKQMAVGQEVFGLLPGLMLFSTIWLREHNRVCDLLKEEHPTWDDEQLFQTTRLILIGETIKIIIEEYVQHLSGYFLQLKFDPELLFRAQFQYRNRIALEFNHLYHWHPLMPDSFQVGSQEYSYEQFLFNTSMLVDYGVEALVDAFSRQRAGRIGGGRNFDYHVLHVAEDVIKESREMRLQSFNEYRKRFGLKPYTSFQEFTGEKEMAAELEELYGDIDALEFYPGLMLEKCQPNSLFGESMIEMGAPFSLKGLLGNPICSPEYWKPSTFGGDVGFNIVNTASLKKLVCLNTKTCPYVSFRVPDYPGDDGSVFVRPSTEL
As to the kind of experiment: Procedure II: CO activity in broken RBL-1 cells (homogenate supernatant). It counts as biochemical. Particulars: 20 min; @ 10 .quadrature.M; RBL-1 broken cell supernatant; read-out: Proc. II CO % inhibition. Here is the method: (§1) Procedure II was used to assess LO and CO activity. Rat basophilic leukemia cells (RBL-1; 5×10^7 viable cells/mL) were disrupted by homogenization on ice (four 20 sec bursts) with a Brinkman polytron. […] The homogenate was then centrifuged at 9,220×g for 48 minutes at 4° C. The pellet was discarded and the supernatant was saved as the source of enzymes. The supernatant was pre-incubated for five minutes at 37° C. in the presence of 2 mM of CaCl2 and compound or vehicle (1% DMSO). The conversion of AA into products by CO and LO was initiated by adding 10 μL (50 μCi) of 1-^14 C-AA to each tube and incubated at 37° C. for 20 minutes. The reaction was stopped by adjusting the pH of each sample to 3 to 3.5 with 2M formic acid. Samples were extracted with three volumes of chloroform to isolate the products of 5-LO formed during the reaction. Fractions were dried under nitrogen, then resuspended in 40 μL of chloroform and spotted onto silica gel HL plates. The plates were developed in A-9 solvent. The dried plates were analyzed using a Bioscan Imaging TLC scanner to determine the percentage of radiolabelled AA converted to 5-HETE (LO product) in each sample. The percentage of inhibition was calculated by:
(§2) [1-(5-HETE test)]/5-HETE control×100=% inhibition
(§3) The IC50 was determined using a curve fit in Cricket Graph (Computer Associated), which provided the equation of the regressed line used in the calculation.

The target in assay [3] is T3, 5-LO (Rattus norvegicus, UniProt P12527).
T3 construct: the supernatant was saved as the source of enzymes; endogenous in cells; host or cells: RBL-1 (rat basophilic leukemia) cells
T3 sequence (P12527 1-673): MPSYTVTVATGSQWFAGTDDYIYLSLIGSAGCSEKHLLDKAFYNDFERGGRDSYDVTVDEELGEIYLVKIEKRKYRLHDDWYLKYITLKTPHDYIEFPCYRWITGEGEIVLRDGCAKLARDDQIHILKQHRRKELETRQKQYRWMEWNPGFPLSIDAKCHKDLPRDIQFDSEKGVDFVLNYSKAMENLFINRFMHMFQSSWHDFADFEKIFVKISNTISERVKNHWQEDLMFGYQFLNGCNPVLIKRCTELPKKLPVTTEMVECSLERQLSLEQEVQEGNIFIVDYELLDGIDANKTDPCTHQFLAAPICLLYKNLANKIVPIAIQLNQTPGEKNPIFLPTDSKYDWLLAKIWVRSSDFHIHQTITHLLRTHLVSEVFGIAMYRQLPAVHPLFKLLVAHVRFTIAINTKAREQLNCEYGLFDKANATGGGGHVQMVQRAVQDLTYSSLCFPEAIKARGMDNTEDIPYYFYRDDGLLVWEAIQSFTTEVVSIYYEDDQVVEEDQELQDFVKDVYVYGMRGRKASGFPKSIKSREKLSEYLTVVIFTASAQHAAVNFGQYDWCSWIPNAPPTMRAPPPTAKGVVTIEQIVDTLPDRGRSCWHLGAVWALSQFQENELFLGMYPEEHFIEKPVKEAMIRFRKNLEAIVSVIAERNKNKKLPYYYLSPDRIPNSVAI
The assay can be described thus: Procedure II: 5-LO activity (5-HETE) in broken RBL-1 cells (homogenate supernatant). It counts as biochemical. Particulars: RBL-1 broken cell supernatant; for inhibition at 10 µM: 20 min, @ 10 .quadrature.M, read-out: Proc. II 5-LO % inhibition. The protocol: as §1, §2, §3

In assay [4] the target is T2, CO. The assay can be described thus: Procedure III: CO (PgD2) in intact RBL-1 cells. Particulars: calcium ionophore A 23187, read-out: Proc. III CO IC50. It counts as cell-based. Here is the method:
as §3
(§4) In Procedure III, the ability to inhibit 5-LO and CO in intact RBL-1 cells was also evaluated. […] Cells were collected by centrifugation, washed once in HBSS, and resuspended at a concentration of 1×10^5 cells/mL. Cells were incubated in the presence of vehicle or drug then centrifuged at 800×g for 10 minutes at 4° C. The supernatant was removed by aspiration and the cells were resuspended in 0.5 mL of HBSS. […] The conversion of AA to 5-LO products was initiated by the addition of 10 μL (50 μCi) of 1-^14 C-AA. Products were isolated by acidification and extraction, followed by thin layer chromatography analysis as described above. Radioactive areas corresponding to authentic 5-LO (5-HETE) and CO (PgD2) products were quantitated by the Bioscan 2000 Imaging System and the IC50 was calculated as above.

The target in assay [5] is T3, 5-LO. The assay can be described thus: Procedure III: 5-LO (5-HETE) in intact RBL-1 cells. Particulars: calcium ionophore A 23187, read-out: Proc. III 5-LO IC50. In kind it is cell-based. Here is the method:
as §3, §4

Setting [6] is: @ 10 .quadrature.M, SSV cyclooxygenase.

Where two headings read alike, the source gives them in different places.

Regarding `CCOC(=O)CCC(=O)N(O)C(C)C#Cc1cc(-c2ccc(CC)cc2)n(-c2ccc(OC)cc2)n1` (centres unmarked) [Cpd 32], the inhibition at 10 µM in assay [1] (setting [6]) was 3%; on CO [2], 52%; on 5-LO [3], 97%. The values for the IC50 on CO [4] and on 5-LO [5] were 14 µM and 5.1 µM, respectively.
As to `COc1ccc(-n2nc(C#CCN(O)C(=O)c3ccccc3)cc2-c2ccc(C)cc2)cc1` [Cpd 15], the inhibition at 10 µM was 52% in assay [1] and 100% at 5-LO [3]. Also, at 5-LO [5], the IC50 was found to be 8 µM.
Turning to `CCc1ccc(-c2cc(C#CC(C)N(O)C(=O)CN3CCN(C)CC3)nn2-c2ccc(OC)cc2)cc1` (centres unmarked) [Cpd 45, N-(4-methylpiperazin-1-yl)acetyl-N-(1-[5-(4-ethylphenyl)-1-(4-methoxyphenyl)pyrazol-3-yl]-1-butyn-3-yl)hydroxylamine], the values for the inhibition at 10 µM (in assay [1] (setting [6]); at CO [2]; at 5-LO [3]) were 0%, 11% and 25%, respectively.
The corresponding values for `CCCCCCCC(=O)N(O)C(C)C#Cc1cc(-c2ccc(Cl)cc2)n(-c2ccc(OC)cc2)n1` (centres unmarked) [Cpd 38] are 31%, 21% and 100%.
In the same order, the values of `COc1ccc(-n2nc(C#CC(C)N(O)C(=O)CNCCCN(C)C)cc2-c2ccc(C)cc2)cc1` (centres unmarked) [Cpd 42] are 0%, 14% and 29%.
The corresponding values for `COc1ccc(-n2nc(C#CC(C)N(O)C(=O)CCC(=O)O)cc2-c2ccc(Cl)cc2)cc1` (centres unmarked) [Cpd 39] are 0%, 0% and 74%.
In the case of `CCC(=O)N(O)C(C)C#Cc1cc(-c2ccc(C)cc2)n(-c2ccc(OC)cc2)n1` (centres unmarked) [Cpd 19], the inhibition at 10 µM amounted to 76% in assay [1] (setting [6]), 67% on CO [2] and 93% on 5-LO [3].
Consider `COc1ccc(-n2nc(C#CC(C)N(O)C(=O)c3ccco3)cc2-c2ccc(C)cc2)cc1` (centres unmarked) [Cpd 25, N-(furan-2-carbonyl)-N-(1-(1-(4-methoxyphenyl)-5-(4-methylphenyl)pyrazol-3-yl)-1-butyn-3-yl)hydroxylamine], for which the IC50 in assay [1] (SSV cyclooxygenase, read-out: Proc. I IC50) came out at 1.3 µM. Further, the inhibition at 10 µM at CO [2] was 61%; at 5-LO [3], 70%.
For the compound `CCc1ccc(-c2cc(C#CC(C)N(O)C(=O)CCC(=O)O)nn2-c2ccc(OC)cc2)cc1` (centres unmarked) [Cpd 33], the inhibition at 10 µM in assay [1] (setting [6]) turned out to be 0%; on CO [2], 0%; at 5-LO [3] it was 37%.
For `COc1ccc(-n2nc(C#CC(C)N(O)C(=O)N3CCCCC3)cc2-c2ccc(Cl)cc2)cc1` (centres unmarked) [Cpd 9], the inhibition at 10 µM was determined as 44% in assay [1] and 76% on 5-LO [3]. The IC50 on 5-LO [5] worked out at 8 µM.
Consider `COc1ccc(-n2nc(C#CC(C)N(O)C(=O)C(C)C)cc2-c2ccc(Cl)cc2)cc1` (centres unmarked) [Cpd 37], for which the figures for the inhibition at 10 µM on CO [2] and on 5-LO [3] were 80% and 100%, respectively.
The corresponding values for `CCC(=O)N(O)C(C)C#Cc1cc(-c2ccc(Cl)cc2)n(-c2ccc(OC)cc2)n1` (centres unmarked) [Cpd 36] are 100% and 100%.
As for `COc1ccc(-n2nc(C#CCN(O)C(N)=O)cc2-c2ccc(Cl)cc2)cc1` [Cpd 5, N-hydroxy-N-(1-(5-(4-chlorophenyl)-1-(4-methoxyphenyl)pyrazol-3-yl)-1-propyn-3-yl)urea], the inhibition at 10 µM in assay [1] (setting [6]) came out at 9%; at CO [2], 0%. The IC50 amounted to 0.08 µM on 5-LO [3] (read-out: Proc. II 5-LO IC50) and 0.9 µM at 5-LO [5].
For the compound `CNC(=O)N(O)C(C)C#Cc1cc(-c2ccc(Cl)cc2)n(-c2ccc(OC)cc2)n1` (centres unmarked) [Cpd 7], the inhibition at 10 µM turned out to be 5% in assay [1] (setting [6]), 0% on CO [2] and 79% on 5-LO [3].
On to `CCc1ccc(-c2cc(C#CC(C)N(O)C(=O)CN3CCOCC3)nn2-c2ccc(OC)cc2)cc1` (centres unmarked) [Cpd 44], for which the inhibition at 10 µM is 0% in assay [1] (setting [6]), 0% at CO [2] and 93% on 5-LO [3].
As for `CCCNC(=O)N(O)C(C)C#Cc1cc(-c2ccc(Cl)cc2)n(-c2ccc(OC)cc2)n1` (centres unmarked) [Cpd 8], the inhibition at 10 µM in assay [1] (setting [6]) came to 14%; on CO [2], 32%; at 5-LO [3], 82%. Also, on 5-LO [5], the concentration for half-maximal inhibition (IC50) came out at 2.8 µM.
